Patent publication US8476272B2, “Pharmaceutical composition for treatment of type 2 diabetes” (Jiangsu Hengrui Medicine Co., Ltd., priority 2010, dated 2013)

Columns and labels:
[1] = tested on: genetic fatty Wistar rats with diabetes; assay: 14-day administration to genetic fatty Wistar rats with diabetes: plasma glucose and hemoglobin; format: in vivo; conditions: 14 days, compound A or MK-0431 10 mg/kg/day p.o., metformin 100 mg/kg/day, mean ± SD, n=5-6; for hemoglobin: hemoglobin Al
Procedure: 14-19 week-old male Wistar rats were divided into 5 groups, 5-6 each group. […] Blood was collected from caudal vein. The plasma glucose and hemoglobin Al were determined respectively with a commercial kit (NC-ROPET, Nippon Chemiphar CO.) by enzyme method.

[2] = tested on: genetic fatty Wistar rats with diabetes; assay: Oral glucose loading test in genetic fatty Wistar rats with diabetes after 7 days of administration; format: in vivo; conditions: phosphates 30 mg/kg/day p.o., metformin 100 mg/kg/day, mean ± SD, n=5
Procedure: 13-14 week-old male Wistar rats were divided into 5 groups, 5 each group. […] Oral glucosieloading test was conducted immediately after fasting overnight (2 g glucose/kg/5 ml, p.o.). Blood was collected from caudal vein before or 120 minutes and 240 minutes after the test, and plasma glucose was analyzed with enzyme method (Encore Chemical System; Baker).

[3] = 0 min (before glucose load 2 g/kg p.o.)
[4] = 120 min after glucose load 2 g/kg p.o.
[5] = 240 min after glucose load 2 g/kg p.o.

Compound | plasma glucose [1] | hemoglobin [1] | plasma glucose [2, 3] | plasma glucose [2, 4] | plasma glucose [2, 5]
COC(=O)c1nc(C(F)(F)F)n2c1CN(C(=O)C[C@H](N)Cc1cc(F)c(F)cc1F)CC2 [Compound A, (R)-7-[3-amino-4-(2,4,5-trifluoro-phenyl)-butyryl]-3-trifluoromethyl-5,6,7,8-tetrahydro-imidazo[1,5-a]pyrazine-1-carboxylic acid methyl ester] | 214 ± 50 | 5.3 ± 0.3 | – | – | –
CN(C)C(=N)N=C(N)N [metformin] | 327 ± 46 | 6.1 ± 0.6 | 119 ± 11 mg/dL | 221 ± 62 mg/dL | 107 ± 21 mg/dL
COC(=O)c1nc(C(F)(F)F)n2c1CN(C(=O)C[C@H](N)Cc1cc(F)c(F)cc1F)CC2 [phosphate of compound A] | – | – | 103 ± 11 mg/dL | 137 ± 17 mg/dL | 102 ± 9 mg/dL
